Measured values reported in patent US10682333B2, “Composition for inhibiting formation of SNARE complex, containing myricetin derivatives” (RESEARCH & BUSINESS FOUNDATION SUNGKYUNKWAN UNIVERSITY, priority 2015, dated 2020).
Read-outs that look alike come from different tables or passages of the source.

Legend:
[1] = target: T1, SNARE complex (Syntaxin 1A-CFP, VAMP2-YFP) in PCl2 cells (UniProt P60881+P63027+Q16623); assay: In vivo (cell) SNARE function screen: FRET C and NPY release in PCl2 cells; assay type: cell-based
T1 construct: expressed in transfected cells

SNARE complexes [2] = target: T2, SNARE complexes (Homo sapiens, UniProt P60880+P63027+Q16623); assay: Immunoblotting of SDS-resistant SNARE complexes, in vivo; assay type: cell-based; settings: SDS-PAGE
Excerpt: (§1) The above characteristics were clearly confirmed by immunoblotting of SNARE complexes (see FIG. 2B). SNARE complexes are known to have SDS-resistance, and based on these characteristics, immunoblotting using SDS-PAGE is generally used to identify the formation of SNARE complexes.

PCl2 cells [3] = assay: [3H] norepinephrine release from PCl2 cells (liquid scintillation); assay type: cell-based; settings: for inhibition of release of [3H] norepinephrine: Krebs' buffer with high K+
Experimental: The first method is as follows. […] After thorough washing, the PCl2 cells were washed four times with the culture medium for 15 minutes each. […] The medium was replaced with Krebs' buffer with high K^+, followed by culturing for 10 minutes, to collect samples. The collected samples were subjected to radiation measurement using a liquid scintillation counter.

[4] = Light stability under UV, color observed with the naked eye over time; assay type: physicochemical; settings: UV lamp
Experimental: It was examined whether myricetin, and laricitrin and syringetin, which are naturally occurring myricetin derivatives, were denatured when exposed to UV. First, each myricetin derivative (MP, 1 mg/1.34 g), prepared by reacting myricetin (M, 1 mg/1.34 g) and palmitic acid, was uniformly mixed in a commercially available sunblock cream (Kolmar Korea, NoTS UV protection sunscreen cream, 1.34 g), and the mixture was applied on a cover glass, followed by irradiation for 24 hours with UV having an intensity of 253.7 nM using a UV lamp.

PCl2 cells [5] = assay: Intracellular bioconversion into myricetin in PCl2 cells (HPLC); assay type: in vitro ADME; settings: within 1 hour
Experimental: A rate of bioconversion of the myricetin derivative prepared by acylation with acetic acid into myricetin in vivo was determined.
After the cells were completely washed, the cells were treated with trypsin to collect trypsin-attached cells, and trypsin was removed therefrom to obtain only pure cells. The cells were suspended in 100 μl of tetrahydrofuran, followed by disruption through sonication, and then only tetrahydrofuran in which materials in the cells were lysed was collected. Subsequently, only myricetin in the recovered purified liquid was analyzed by high-performance liquid chromatography (HPLC) to examine whether the myricetin derivative prepared by acylation using acetic acid was converted into myricetin, and the results thereof are illustrated in FIG. 15.

[6] = Examination of color of myricetin derivatives by degree of acylation; assay type: physicochemical; settings: degree of acylation by palmitic acid
Excerpt: In the present experimental example, whether a disadvantage of myricetin that a too dark intrinsic color thereof causes the skin to be stained can be addressed through making changes in properties using myricetin derivatives according to the present invention was examined.
As a result, it was observed that as a degree to which a hydroxyl group of myricetin was acylated by palmitic acid, i.e., the degree of acylation, increased, colors of the myricetin derivatives were changed, unlike conventional myricetin. In particular, it was observed that the myricetin derivative obtained in Example 3, in which one hydroxyl group of myricetin was acylated by palmitic acid, had yellow color, which is an intrinsic color of myricetin (see FIG. 12A), whereas the myricetin derivative obtained in Example 4, in which all hydroxyl groups of myricetin were acylated by palmitic acid, had white color (see FIG. 12B).

[7] = Solubility in canola oil and mineral oil; assay type: physicochemical
Experimental: In the present experimental example, in view of the fact that in Example 4, myricetin underwent various changes in properties during synthesis of a myricetin derivative, in which all hydroxyl groups of myricetin were acylated by palmitic acid, the solubilities of the myricetin derivative in an organic solvent, or in a commercially available liposoluble cosmetic, food product, or the like were measured.
In particular, the myricetin derivative was dissolved in canola oil and mineral oil at a ratio of 1 mg/l ml. The results thereof are illustrated in FIG. 13.

[8] = target: SNARE-mediated membrane fusion (Homo sapiens, UniProt P60880+P63027+Q16623); assay: In vitro membrane fusion by FRET on dye-labelled lipid bilayer membrane; assay type: biochemical; settings: artificial lipid bilayer membrane
SNARE complexes [9] = target: T2, SNARE complexes; assay: Immunoblotting of SDS-resistant SNARE complexes, in vitro; assay type: biochemical; settings: SDS-PAGE
Excerpt: as §1

[10] = Light stability under UV, DMSO solution mixed with zinc oxide; assay type: physicochemical; settings: 1 mg/ml DMSO with zinc oxide, UV 2 hours
Experimental: First, 1 mg of each of myricetin and the myricetin derivatives were dissolved in 1 ml of dimethyl sulfoxide (DMSO), followed by mixing with zinc oxide having high reactivity with a hydroxyl group of myricetin. The resulting mixed solution was applied, as 100 μl drops, on 3M paper, and irradiated for 2 hours with UV light having an intensity of 253.7 nM using a UV lamp. As negative controls, untreated DMSO and a mixed solution of untreated DMSO and zinc oxide were used.

T2 sequence (Q16623 whole entry): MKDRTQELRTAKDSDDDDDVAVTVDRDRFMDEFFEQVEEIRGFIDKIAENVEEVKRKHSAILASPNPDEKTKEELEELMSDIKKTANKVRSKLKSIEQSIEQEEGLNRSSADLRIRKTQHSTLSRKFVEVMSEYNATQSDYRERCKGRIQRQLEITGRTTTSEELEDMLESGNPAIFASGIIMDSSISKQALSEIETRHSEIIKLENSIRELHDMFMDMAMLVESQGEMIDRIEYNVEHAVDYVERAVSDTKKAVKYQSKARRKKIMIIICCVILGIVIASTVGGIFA
T2 sequence (P60880 whole entry): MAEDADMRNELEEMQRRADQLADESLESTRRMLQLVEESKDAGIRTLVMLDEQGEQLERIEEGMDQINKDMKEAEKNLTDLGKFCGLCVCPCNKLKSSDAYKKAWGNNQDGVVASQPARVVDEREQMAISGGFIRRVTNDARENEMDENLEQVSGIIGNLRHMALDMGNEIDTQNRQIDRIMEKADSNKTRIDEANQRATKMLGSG
T2 sequence (P63027 whole entry): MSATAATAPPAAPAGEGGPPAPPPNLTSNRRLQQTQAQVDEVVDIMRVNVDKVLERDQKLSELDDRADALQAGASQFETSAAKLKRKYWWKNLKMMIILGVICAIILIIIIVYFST
T1 sequence (Q16623 whole entry): as the sequence (Q16623 whole entry) above
T1 sequence (P63027 whole entry): as the sequence (P63027 whole entry) above
T1 sequence (P60881 whole entry): as the sequence (P60880 whole entry) above
Chain of SNARE-mediated membrane fusion (Q16623 whole entry, the tested form may be a part): as the sequence (Q16623 whole entry) above
Chain of SNARE-mediated membrane fusion (P60880 whole entry, the tested form may be a part): as the sequence (P60880 whole entry) above
Chain of SNARE-mediated membrane fusion (P63027 whole entry, the tested form may be a part): as the sequence (P63027 whole entry) above

Structure (SMILES) | in vivo functions (FRET C, NPY release) [1] | formation of SNARE complexes in vivo (SNARE complexes [2]) | inhibition of release of [3H] norepinephrine (PCl2 cells [3]) | color change on UV irradiation compared to myricetin [4] | time after UV irradiation at which color turned brown [4] [min] | other results
COc1cc(-c2oc3cc(O)cc(O)c3c(=O)c2O)cc(O)c1O [laricitrin] | 40-45 % of the control | decreasing tendency only in vivo | highest reactivity | did not show clear color changes | 60 | activity of inhibiting [3H] norepinephrine release compared to conventional myricetin (PCl2 cells [3]; 20 μM): at least two-fold improved activity
CC(=O)Oc1cc(OC(C)=O)c2c(=O)c(OC(C)=O)c(-c3cc(OC(C)=O)c(OC(C)=O)c(OC(C)=O)c3)oc2c1 [MA] |  |  | comparable or slightly better activity |  |  | fraction bioconverted into myricetin (PCl2 cells [5]): 3%
COc1cc(-c2oc3cc(O)cc(O)c3c(=O)c2O)cc(OC)c1O [syringetin] |  | decreasing tendency only in vivo |  | did not show clear color changes | 240 | 
CCCCCCCCCCCCCCCC(=O)Oc1cc(OC(=O)CCCCCCCCCCCCCCC)c2c(=O)c(OC(=O)CCCCCCCCCCCCCCC)c(-c3cc(OC(=O)CCCCCCCCCCCCCCC)c(OC(=O)CCCCCCCCCCCCCCC)c(OC(=O)CCCCCCCCCCCCCCC)c3)oc2c1 [MP] |  |  |  |  |  | color of the substance [6]: white color; solubility in canola oil [7]: liposoluble; solubility in mineral oil [7]: liposoluble
O=c1c(O)c(-c2cc(O)c(O)c(O)c2)oc2cc(O)cc(O)c12 [myricetin] |  | decreasing tendency | concentration-dependent manner |  | 5 | in vivo functions (FRET C, NPY release) ([1]; PCl2 cells): ≤ 40 % of the control; in vitro functions (membrane fusion) [8]: ≤ 40 % of the control; formation of SNARE complexes in vitro (SNARE complexes [9]): decreasing tendency; color change on UV exposure [10]: color changes over time; solubility in canola oil ([7]; 1 mg/1 ml): insoluble; solubility in mineral oil ([7]; 1 mg/1 ml): insoluble; time after UV irradiation at which color turned dark brown (complete oxidation) [4]: 30 min
COc1cc(O)c2c(=O)c(OC)c(-c3cc(OC)c(OC)c(OC)c3)oc2c1 [combretol] | 40-45 % of the control | decreasing tendency only in vivo |  |  |  | 
